Laboratory results taken from ChEMBL document CHEMBL1201862, “PubChem BioAssay data set” (2004).
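Growth conditions: 96-well plates. Treatment: test compound, 48 hours, 5 concentrations. Analysis: linear interpolation between bracketing concentrations; unreached endpoints set to highest concentration. At the GI50, growth is halved.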 Activity calls are given as the source filed them. No stated cut-off is given here; in the data, active = GI50 up to about 1.1 µM and inactive = higher.

Experiments:
Experiment in all cases: NCI-60 cell line screen, 48 h
[1] = test system: CAKI-1
[2] = test system: CCRF-CEM
[3] = test system: HCT-116
[4] = test system: HL-60
[5] = test system: HOP-92
[6] = test system: KM12
[7] = test system: LOX IMVI
[8] = test system: MDA-MB-231
[9] = test system: MDA-N
[10] = test system: MOLT-4
[11] = test system: NCI/ADR-RES
[12] = test system: OVCAR-4
[13] = test system: OVCAR-5
[14] = test system: PC-3
[15] = test system: RPMI-8226
[16] = test system: SF-268
[17] = test system: SN12C
[18] = test system: UACC-62
[19] = test system: Hs-578T
[20] = test system: SNB-75

Row | Structure (SMILES) | GI50 [1] | GI50 [2] | GI50 [3] | GI50 [4] | GI50 [5] | GI50 [6] | GI50 [7] | GI50 [8] | GI50 [9] | GI50 [10] | GI50 [11] | GI50 [12] | GI50 [13] | GI50 [14] | GI50 [15] | GI50 [16] | GI50 [17] | GI50 [18] | GI50 [19] | GI50 [20]
1 | CN(C)CCCNc1ncnc2c1ncn2C1OC(CO)C(O)C1O (configuration not stated) | > 100 µM (inactive) | > 100 µM (inactive) | > 100 µM (inactive) | > 100 µM (inactive) | > 100 µM (inactive) | > 100 µM (inactive) | > 100 µM (inactive) | > 100 µM (inactive) | > 100 µM (inactive) | 54.8 µM (inactive) | > 100 µM (inactive) | > 100 µM (inactive) | > 100 µM (inactive) | > 100 µM (inactive) | > 100 µM (inactive) | > 100 µM (inactive) | > 100 µM (inactive) | > 100 µM (inactive) | – | –
2 | COc1cc(OC)cc(C(=O)CC(=O)c2cc(OC)cc(OC)c2)c1 | – | 63.5 µM (inactive) | 69.2 µM (inactive) | 6.01 µM (inactive) | > 100 µM (inactive) | > 100 µM (inactive) | – | – | > 100 µM (inactive) | > 100 µM (inactive) | > 100 µM (inactive) | – | > 100 µM (inactive) | 94.4 µM (inactive) | > 100 µM (inactive) | > 100 µM (inactive) | > 100 µM (inactive) | > 100 µM (inactive) | > 100 µM (inactive) | > 100 µM (inactive)
3 | Nc1ncnc2c1ncn2[C@@H]1O[C@H](COC(c2ccccc2)(c2ccccc2)c2ccccc2)[C@@H](OC(=S)Oc2ccccc2)[C@@H]1F | 9.73 µM (inactive) | 2.5 µM (inactive) | 3.81 µM (inactive) | 3.18 µM (inactive) | 8.43 µM (inactive) | 4.72 µM (inactive) | 3.88 µM (inactive) | 10.7 µM (inactive) | – | 2.51 µM (inactive) | 4.16 µM (inactive) | 9.08 µM (inactive) | 19.1 µM (inactive) | 3.88 µM (inactive) | 3.49 µM (inactive) | 3.66 µM (inactive) | 4.46 µM (inactive) | 13.7 µM (inactive) | 6.28 µM (inactive) | 14.8 µM (inactive)
4 | CCCCC(=O)c1ccc2ccccc2c1O | > 100 µM (inactive) | 42.8 µM (inactive) | > 100 µM (inactive) | 51.3 µM (inactive) | > 100 µM (inactive) | > 100 µM (inactive) | > 100 µM (inactive) | 66.4 µM (inactive) | – | 84.1 µM (inactive) | > 100 µM (inactive) | > 100 µM (inactive) | – | > 100 µM (inactive) | 35.5 µM (inactive) | > 100 µM (inactive) | – | > 100 µM (inactive) | > 100 µM (inactive) | > 100 µM (inactive)
5 | Nc1ccc2c(c1)C(=O)c1ccccc1-2 | 56.5 µM (inactive) | 71.6 µM (inactive) | > 100 µM (inactive) | 30.2 µM (inactive) | 28.6 µM (inactive) | 62.5 µM (inactive) | 73.1 µM (inactive) | > 100 µM (inactive) | – | 15.7 µM (inactive) | > 100 µM (inactive) | > 100 µM (inactive) | > 100 µM (inactive) | > 100 µM (inactive) | > 100 µM (inactive) | > 100 µM (inactive) | > 100 µM (inactive) | > 100 µM (inactive) | > 100 µM (inactive) | > 100 µM (inactive)
6 | COc1cc(-c2oc3c(OC)c(O)c(OC)c(O)c3c(=O)c2OC)cc(O)c1OC | 24.5 µM (inactive) | 28.9 µM (inactive) | 36.1 µM (inactive) | 24.8 µM (inactive) | 39.4 µM (inactive) | 14.3 µM (inactive) | 28.4 µM (inactive) | 46.2 µM (inactive) | 17.7 µM (inactive) | 42.9 µM (inactive) | 17.6 µM (inactive) | > 100 µM (inactive) | 56.6 µM (inactive) | 33.3 µM (inactive) | 23.8 µM (inactive) | – | 34.4 µM (inactive) | 22.4 µM (inactive) | – | 11 µM (inactive)
7 | COc1ccc2nc3n(c2c1)C(c1c(Cl)cccc1Cl)SC3 (configuration not stated) | > 100 µM (inactive) | > 100 µM (inactive) | > 100 µM (inactive) | > 100 µM (inactive) | > 100 µM (inactive) | > 100 µM (inactive) | > 100 µM (inactive) | – | 87.9 µM (inactive) | > 100 µM (inactive) | > 100 µM (inactive) | 24.7 µM (inactive) | > 100 µM (inactive) | > 100 µM (inactive) | > 100 µM (inactive) | – | > 100 µM (inactive) | > 100 µM (inactive) | – | > 100 µM (inactive)
8 | COc1ccc(Nc2nc3c([nH]2)c(=O)n(C)c(=O)n3C)cc1 | > 10 µM (inactive) | > 10 µM (inactive) | – | > 10 µM (inactive) | > 10 µM (inactive) | > 10 µM (inactive) | > 10 µM (inactive) | > 10 µM (inactive) | > 10 µM (inactive) | > 10 µM (inactive) | – | > 10 µM (inactive) | – | > 10 µM (inactive) | > 10 µM (inactive) | > 10 µM (inactive) | > 10 µM (inactive) | > 10 µM (inactive) | – | > 10 µM (inactive)
9 | C=CC(=O)NCCC(=O)OCn1cc(F)c(=O)[nH]c1=O | 3.2 µM (inactive) | 16.7 µM (inactive) | 3.24 µM (inactive) | 0.425 µM (active) | 8.49 µM (inactive) | 5.48 µM (inactive) | 4.34 µM (inactive) | – | 1.56 µM (inactive) | 6.01 µM (inactive) | 27 µM (inactive) | 0.759 µM (active) | 20.6 µM (inactive) | 9.12 µM (inactive) | 1.75 µM (inactive) | 18.7 µM (inactive) | 0.838 µM (active) | 4.08 µM (inactive) | > 100 µM (inactive) | 19.4 µM (inactive)
10 | O=C(CCCC(=O)N1CC(CCl)c2ccc([N+](=O)[O-])cc21)N1CC(CCl)c2ccc([N+](=O)[O-])cc21 (configuration not stated) | > 100 µM (inactive) | > 100 µM (inactive) | > 100 µM (inactive) | > 100 µM (inactive) | > 100 µM (inactive) | – | > 100 µM (inactive) | > 100 µM (inactive) | > 100 µM (inactive) | > 100 µM (inactive) | – | > 100 µM (inactive) | > 100 µM (inactive) | > 100 µM (inactive) | 43.7 µM (inactive) | > 100 µM (inactive) | > 100 µM (inactive) | > 100 µM (inactive) | – | –
11 | CC1(C(O)c2ccccc2)CN(C(C)(C)C)C(=O)/C1=C\Sc1ccccc1 (configuration not stated) | > 100 µM (inactive) | 23.9 µM (inactive) | 25.4 µM (inactive) | 24.7 µM (inactive) | 1.88 µM (inactive) | 31.8 µM (inactive) | 14.1 µM (inactive) | 53 µM (inactive) | 39.1 µM (inactive) | 19.2 µM (inactive) | 35.6 µM (inactive) | 27.4 µM (inactive) | > 100 µM (inactive) | 17.3 µM (inactive) | 9.95 µM (inactive) | 1.76 µM (inactive) | 33.9 µM (inactive) | > 100 µM (inactive) | – | –
12 | Oc1ccc2ccccc2c1/N=N/c1ccsc1 | > 100 µM (inactive) | 83.8 µM (inactive) | 42.7 µM (inactive) | 73.8 µM (inactive) | > 100 µM (inactive) | 24.9 µM (inactive) | > 100 µM (inactive) | – | – | > 100 µM (inactive) | – | > 100 µM (inactive) | > 100 µM (inactive) | – | > 100 µM (inactive) | > 100 µM (inactive) | > 100 µM (inactive) | > 100 µM (inactive) | – | > 100 µM (inactive)
13 | COc1ccc2c(c1)[n+]([O-])c(/C(C)=N/NC(=O)CC#N)c[n+]2[O-] | 35.2 µM (inactive) | > 100 µM (inactive) | 83.9 µM (inactive) | 21.1 µM (inactive) | > 100 µM (inactive) | > 100 µM (inactive) | > 100 µM (inactive) | – | – | > 100 µM (inactive) | – | > 100 µM (inactive) | > 100 µM (inactive) | – | 54.7 µM (inactive) | > 100 µM (inactive) | > 100 µM (inactive) | > 100 µM (inactive) | – | > 100 µM (inactive)
14 | CO/C(=N\N=C\c1cc(OC)ccc1OC)c1ccncc1 | – | > 10 µM (inactive) | > 10 µM (inactive) | > 10 µM (inactive) | – | > 10 µM (inactive) | > 10 µM (inactive) | – | > 10 µM (inactive) | > 10 µM (inactive) | > 10 µM (inactive) | – | > 10 µM (inactive) | > 10 µM (inactive) | > 10 µM (inactive) | > 10 µM (inactive) | > 10 µM (inactive) | – | – | 3.68 µM (inactive)
15 | COC(=O)c1nn(C(=N)c2ccc(Cl)cc2)c2c1CCCCC2 | > 100 µM (inactive) | > 100 µM (inactive) | > 100 µM (inactive) | > 100 µM (inactive) | > 100 µM (inactive) | > 100 µM (inactive) | > 100 µM (inactive) | – | – | > 100 µM (inactive) | – | > 100 µM (inactive) | > 100 µM (inactive) | – | > 100 µM (inactive) | > 100 µM (inactive) | > 100 µM (inactive) | > 100 µM (inactive) | – | > 100 µM (inactive)
16 | CN(C)NC(=O)NC12CC3CC(CC(C3)C1)C2 | > 100 µM (inactive) | > 100 µM (inactive) | > 100 µM (inactive) | > 100 µM (inactive) | > 100 µM (inactive) | > 100 µM (inactive) | > 100 µM (inactive) | – | – | > 100 µM (inactive) | – | > 100 µM (inactive) | > 100 µM (inactive) | – | > 100 µM (inactive) | > 100 µM (inactive) | > 100 µM (inactive) | > 100 µM (inactive) | – | > 100 µM (inactive)
